Reference: ChEMBL document CHEMBL2412969, “Antihyperglycemic and antihyperlipidemic activities of 2-(4-[(2-hydroxybenzyl) amino]-phenyl amino-methyl)-phenol in STZ induced diabetic rats” (Eur J Med Chem, 2013)
Active and inactive are the calls of the source. The rule behind the calls is not given here.

How the values were obtained:
[1] = test system: Rattus norvegicus; test: Antihyperglycemic activity in glucose loaded Wistar albino rat streptozotocin-induced diabetic model assessed as reduction of blood glucose level at 30 mg/kg, po after 1 hr by oral glucose tolerance test; assay type: functional, organism-based; set-up: dose 30 mg/kg
[2] = test system: Rattus norvegicus; test: Hypoglycemic activity in Wistar albino rat assessed as reduction of blood glucose level at 30 mg/kg, po after 1 hr (reference value: 71.26 +/- 4.3 mg/dl); assay type: ADME, organism-based; set-up: dose 30 mg/kg, route oral; conditions: in vivo
[3] = test system: Rattus norvegicus; test: Antihyperglycemic activity in Wistar albino rat streptozotocin-induced diabetic model assessed as reduction of blood glucose level at 60 mg/kg, po after 5 hrs (reference value: 372.2 +/- 16.6 mg/dl); assay type: functional
[4] = test system: Rattus norvegicus; test: Hypoglycemic activity in Wistar albino rat assessed as reduction of blood glucose level at 20 mg/kg, po after 2 hrs (reference value: 76.5 +/- 3.7 mg/dl); assay type: ADME, organism-based; set-up: dose 20 mg/kg, route oral; conditions: in vivo
[5] = test system: Rattus norvegicus; test: Antihyperglycemic activity in Wistar albino rat streptozotocin-induced diabetic model assessed as reduction of blood glucose level at 30 mg/kg, po after 6 hrs (reference value: 372.5 +/- 15.6 mg/dl); assay type: functional
[6] = test system: Rattus norvegicus; test: Hypoglycemic activity in Wistar albino rat assessed as reduction of blood glucose level at 60 mg/kg, po after 2 hrs (reference value: 76.5 +/- 3.7 mg/dl); assay type: ADME, organism-based; set-up: dose 60 mg/kg, route oral; conditions: in vivo
[7] = test system: Rattus norvegicus; test: Antihyperglycemic activity in Wistar albino rat streptozotocin-induced diabetic model assessed as reduction of blood glucose level at 20 mg/kg, po after 1 hr (reference value: 389.16 +/- 19 mg/dl); assay type: functional
[8] = test system: Rattus norvegicus; test: Hypoglycemic activity in Wistar albino rat assessed as reduction of fasting blood glucose level at 30 mg/kg, po qd measured on day 1 (reference value: 89 +/- 6.4 mg/dl); assay type: ADME, organism-based; set-up: dose 30 mg/kg, route oral; conditions: in vivo
[9] = test system: Rattus norvegicus; test: Antihyperlipidemic activity in Wistar albino rat streptozotocin-induced diabetic model assessed as reduction of serum triglyceride level at 30 mg/kg, po qd for 30 days; assay type: functional, organism-based; set-up: dose 30 mg/kg
[10] = test system: Rattus norvegicus; test: Antihyperglycemic activity in Wistar albino rat streptozotocin-induced diabetic model assessed as reduction of fasting blood glucose level at 30 mg/kg, po qd measured on day 1 (reference value: 416.4 +/- 24.2 mg/dl); assay type: functional
[11] = test system: Rattus norvegicus; test: Antihyperglycemic activity in Wistar albino rat streptozotocin-induced diabetic model assessed as reduction of blood glucose level at 60 mg/kg, po after 1 hr (reference value: 389.16 +/- 19 mg/dl); assay type: functional
[12] = test system: Rattus norvegicus; test: Antihyperglycemic activity in Wistar albino rat streptozotocin-induced diabetic model assessed as reduction of blood glucose level at 20 mg/kg, po after 5 hrs (reference value: 372.2 +/- 16.6 mg/dl); assay type: functional
[13] = test system: Rattus norvegicus; test: Antihyperglycemic activity in Wistar albino rat streptozotocin-induced diabetic model assessed as reduction of blood glucose level at 30 mg/kg, po after 2 hrs (reference value: 386.66 +/- 17.5 mg/dl); assay type: functional
[14] = test system: Rattus norvegicus; test: Hypoglycemic activity in Wistar albino rat assessed as reduction of blood glucose level at 20 mg/kg, po after 4 hrs (reference value: 75.8 +/- 4.7 mg/dl); assay type: ADME, organism-based; set-up: dose 20 mg/kg, route oral; conditions: in vivo
[15] = test system: Rattus norvegicus; test: Antihyperglycemic activity in Wistar albino rat streptozotocin-induced diabetic model assessed as reduction of blood glucose level at 60 mg/kg, po after 6 hrs (reference value: 372.5 +/- 15.6 mg/dl); assay type: functional
[16] = test system: Rattus norvegicus; test: Hypoglycemic activity in Wistar albino rat assessed as reduction of blood glucose level at 30 mg/kg, po after 3 hrs (reference value: 76.3 +/- 5.4 mg/dl); assay type: ADME, organism-based; set-up: dose 30 mg/kg, route oral; conditions: in vivo
[17] = test system: Rattus norvegicus; test: Antihyperglycemic activity in Wistar albino rat streptozotocin-induced diabetic model assessed as reduction of fasting blood glucose level at 30 mg/kg, po qd measured on day 30 relative to control; assay type: functional
[18] = test system: Rattus norvegicus; test: Antihyperlipidemic activity in Wistar albino rat streptozotocin-induced diabetic model assessed as reduction of serum LDL level at 30 mg/kg, po qd for 30 days; assay type: functional, organism-based; set-up: dose 30 mg/kg
[19] = test system: Rattus norvegicus; test: Hypoglycemic activity in Wistar albino rat assessed as reduction of blood glucose level at 30 mg/kg, po after 4 hrs (reference value: 75.8 +/- 4.7 mg/dl); assay type: ADME, organism-based; set-up: dose 30 mg/kg, route oral; conditions: in vivo
[20] = test system: Rattus norvegicus; test: Hypoglycemic activity in Wistar albino rat assessed as reduction of fasting blood glucose level at 30 mg/kg, po qd measured on day 15 (reference value: 82.66 +/- 6.05 mg/dl); assay type: ADME, organism-based; set-up: dose 30 mg/kg, route oral; conditions: in vivo
[21] = test system: Rattus norvegicus; test: Antihyperglycemic activity in Wistar albino rat streptozotocin-induced diabetic model assessed as reduction of blood glucose level at 30 mg/kg, po after 1 hr (reference value: 389.16 +/- 19 mg/dl); assay type: functional
[22] = test system: Rattus norvegicus; test: Antihyperglycemic activity in Wistar albino rat streptozotocin-induced diabetic model assessed as increase of body weight at 30 mg/kg, po qd measured on day 15 (reference value: -30.3%); assay type: functional
[23] = test system: Rattus norvegicus; test: Antiatherosclerosis activity in Wistar albino rat assessed as protection from atherogenicity at 30 mg/kg, po qd for 30 days relative to control; assay type: functional
[24] = test system: Rattus norvegicus; test: Hypoglycemic activity in Wistar albino rat assessed as reduction of blood glucose level at 60 mg/kg, po after 3 hrs (reference value: 76.3 +/- 5.4 mg/dl); assay type: ADME, organism-based; set-up: dose 60 mg/kg, route oral; conditions: in vivo
[25] = test system: Rattus norvegicus; test: Hypoglycemic activity in Wistar albino rat assessed as reduction of blood glucose level at 60 mg/kg, po after 4 hrs (reference value: 75.8 +/- 4.7 mg/dl); assay type: ADME, organism-based; set-up: dose 60 mg/kg, route oral; conditions: in vivo
[26] = test system: Rattus norvegicus; test: Hepatoprotective activity in Wistar albino rat assessed as protection against streptozotocin-induced increase in AST, ALT and ALP level in serum at 30 mg/kg, po qd for 30 days; assay type: functional, organism-based; set-up: dose 30 mg/kg
[27] = test system: Rattus norvegicus; test: Hypoglycemic activity in Wistar albino rat assessed as reduction of blood glucose level at 20 mg/kg, po after 3 hrs (reference value: 76.3 +/- 5.4 mg/dl); assay type: ADME, organism-based; set-up: dose 20 mg/kg, route oral; conditions: in vivo
[28] = test system: Rattus norvegicus; test: Antiatherosclerosis activity in Wistar albino rat streptozotocin-induced diabetic model assessed as protection from atherogenicity at 30 mg/kg, po qd for 30 days relative to control; assay type: functional
[29] = test system: Rattus norvegicus; test: Toxicity in Wistar albino rat assessed as increase of body weight at 30 mg/kg, po qd measured on day 30 (reference value: 8.82%); assay type: organism-based; set-up: dose 30 mg/kg, route oral; conditions: in vivo
[30] = test system: Rattus norvegicus; test: Antihyperglycemic activity in Wistar albino rat streptozotocin-induced diabetic model assessed as reduction of blood glucose level at 20 mg/kg, po after 2 hrs (reference value: 386.66 +/- 17.5 mg/dl); assay type: functional
[31] = test system: Rattus norvegicus; test: Renalprotective activity in Wistar albino rat assessed as protection against streptozotocin-induced increase in creatinine level in blood at 30 mg/kg, po qd for 30 days; assay type: functional
[32] = test system: Rattus norvegicus; test: Antihyperlipidemic activity in Wistar albino rat streptozotocin-induced diabetic model assessed as reduction of serum VLDL-cholesterol level at 30 mg/kg, po qd for 30 days; assay type: functional, organism-based; set-up: dose 30 mg/kg
[33] = test system: Rattus norvegicus; test: Renaltoxicity in Wistar albino rat assessed as creatinine level in blood at 30 mg/kg, po qd for 30 days; assay type: organism-based; set-up: dose 30 mg/kg, route oral; conditions: in vivo, 720 h
[34] = test system: Rattus norvegicus; test: Hypoglycemic activity in Wistar albino rat assessed as reduction of blood glucose level at 30 mg/kg, po after 6 hrs (reference value: 73.3 +/- 4.4 mg/dl); assay type: ADME, organism-based; set-up: dose 30 mg/kg, route oral; conditions: in vivo
[35] = test system: Rattus norvegicus; test: Hypoglycemic activity in Wistar albino rat assessed as reduction of blood glucose level at 20 mg/kg, po after 5 hrs (reference value: 73.8 +/- 4.5 mg/dl); assay type: ADME, organism-based; set-up: dose 20 mg/kg, route oral; conditions: in vivo

In the case of `Oc1ccccc1CNc1ccc(NCc2ccccc2O)cc1`, the Activity [1] is reported as “Active”, the Activity [2] is reported as 74.16 mg/dL and the Activity [3] is reported as 49.1 mg/dL. The Activity [4] was 73.16 mg/dL, the Activity [5] was 102 mg/dL and the Activity [6] was 71.3 mg/dL. For the same compound, the Activity [7] was 357.5 mg/dL, the Activity [8] was 90.6 mg/dL and the Activity [9] was “Active”. It also gave an Activity [10] of 333 mg/dL, an Activity [11] of 233.16 mg/dL and an Activity [12] of 204.8 mg/dL. It also gave an Activity [13] of 252.1 mg/dL, an Activity [14] of 72 mg/dL and an Activity [15] of 36.8 mg/dL. The Activity [16] was 74.16 mg/dL, the Activity [17] was 113.5 mg/dL and the Activity [18] was “Active”. It also gave an Activity [19] of 73.16 mg/dL, an Activity [20] of 80.66 mg/dL and an Activity [21] of 315.2 mg/dL. For the same compound, the Activity [22] was 8.57%, the Activity [23] was 70.1% and the Activity [24] was 73.6 mg/dL. For the same compound, the Activity [25] was 79.3 mg/dL, the Activity [26] was “Active” and the Activity [27] was 74.16 mg/dL. The Activity [28] was 66.8%, the Activity [29] was 2.94% and the Activity [30] was 312.83 mg/dL. The Activity [31] was 0.462 mg/dL, the Activity [32] was “Active” and the Activity [33] was 0.37 mg/dL. For the same compound, the Activity [34] was 72.5 mg/dL and the Activity [35] was 70.1 mg/dL.
